The text below walks through data of patent publication US20260028319A1, “INTERMEDIATE SALT FOR THE PREPARATION OF BIS(FLUOROALKYL) BENZODIAZEPINONE COMPOUNDS” (Immunome, Inc., priority 2022, published 2026).

Holding throughout (type): physicochemical
A short description of series [1]: (I-1) and (1) stability study, assay by HPLC. The following applies: for Stability, in words: free acid versus CHA salt; for Assay (by HPLC), Initial Results: before storage. Here is the method:
(§1) Assay and water content of the oily free acid (I-1) were tested following a 6-month period in 25° C./60% RH (relative humidity) and 40° C./75% RH (Table 2a).
Similarly, the corresponding CHA salt (1), which is a powder, was tested for its purity/assay:
It could be stipulated that increased water amount over time in the free acid gives rise to the observed assay which deteriorates as the test progresses.

Series [2] is described as follows: (I-1) and (1) stability study, water content by KF. The following applies: for Water content (by KF) following storage: 6 months; for Water content (by KF), Initial Results: before storage. Here is the method: as §1
Series [3] is described as follows: Stability of Na, CHA and tBuNH2 salts of (I-1), GC/MS assay. The method, then: Na and tBuNH2 salts of (I-1) were prepared. Stability of the salts was tested and compared to the stability of the CHA salt ((1)).
Table 3 also emphasizes that specific salts of (I-1) provide high purity over time. However, it cannot be said that any possible salt (any possible cation) of (I-1) will give rise to such high stability over time.

Consider `CC(C)(C)OC(=O)C[C@@H](CCC(F)(F)F)C(=O)O` [(I-1), (2R)-2-(2-tert-Butoxy-2-oxoethyl)-5,5,5-trifluoropentanoic acid, reference compound], for which the “Assay (by HPLC) following storage” value in series [1] (6 months, 25° C./60% RH) was found to be 92.8 % w/w; in series [1] (6 months, 40° C./75% RH), 84.5 % w/w. For the same molecule, the “Stability, in words” value in series [1] (listed as free acid compound) was “unstable”. Moreover, the “Assay (by HPLC), Initial Results” value in series [1] is listed as 93.5 % w/w. Further, the “Water content (by KF) following storage” value in series [2] (25° C./60% RH) was found to be 2.0%; in series [2] (40° C./75% RH), 2.3%. Moreover, in series [2], the “Water content (by KF), Initial Results” value was 0.8%.
`CC(C)(C)OC(=O)C[C@@H](CCC(F)(F)F)C(=O)O` [(1)]: the “Purity (GC/MS assay) At 2-8° C. for 1 week” value in series [3] (2-8° C., 1 week) came out at 95.8 % w/w. In series [3] (45° C., 1 week), the “Purity (GC/MS assay) At 45° C. for 1 week” value stood at 98.2 % w/w. Also, the “Stability among salts of (I-1), in words” value in series [3] (Na, CHA and tBuNH2 salts compared) is on record as “most stable salt”. Besides, the “Assay by HPLC” value in series [1] (1 month, 2-8° C.) stood at 96.2 % w/w; in series [1] (1 month, 25° C./60% RH), 94.8 % w/w; in series [1] (1 month, 40° C./75% RH) it was 94.3 % w/w; in series [1] (3 months, 2-8° C.), 95.1 % w/w; in series [1] (3 months, 25° C./60% RH), 94.5 % w/w; in series [1] (3 months, 40° C./75% RH), 93.0 % w/w. The “Assay by HPLC” value in series [1] (6 months, 2-8° C.) was 94.6 % w/w. Also, the “Assay (by HPLC) following storage” value in series [1] (6 months, 25° C./60% RH) came to 95.1 % w/w; in series [1] (6 months, 40° C./75% RH), 94.4 % w/w. Further, in series [1], the “Stability, in words” value is reported as “much more stable”. Further, the “Assay (by HPLC), Initial Results” value in series [1] came to 95.0 % w/w. The “Water content (by KF) following storage” value in series [2] (25° C./60% RH) and in series [2] (40° C./75% RH) was 0.3% each time. In series [2], the “Water content (by KF), Initial Results” value came out at 0.2%.
